IC50 and Ki data for 25 compounds are collected here from ChEMBL document CHEMBL1909046, “DrugMatrix in vitro pharmacology data”.

For orientation: IC50 means the concentration that inhibits the measured activity by half. As a reminder, the Ki is a measure of affinity in units of concentration, obtained from inhibition or displacement.

Assay [1] in a line: DRUGMATRIX: Sodium/nucleoside co-transporter radioligand binding (ligand: nitrobenzylthioinosine). Format: cell membranes, Cavia porcellus, Dunkin-Hartley, Cerebral cortex, Membrane. Particulars: Not Active = under 50% inhibition at 10 µM.
Assay [2] has as its target Sodium-dependent noradrenaline transporter (Homo sapiens, UniProt P23975). The assay is described as follows: DRUGMATRIX: Norepinephrine Transporter radioligand binding (ligand: [125I] RTI-55). The conditions noted are these: Not Active = under 50% inhibition at 10 µM; for Ki: read-out: Ki. The assay is classed as cell membranes, MDCK, Membrane.
The target in assay [3] is 5-hydroxytryptamine receptor 2B (Homo sapiens, UniProt P41595). The assay is classed as cell membranes, CHO-K1, Membrane. Particulars: for Ki: read-out: Ki. On all read-outs here: in other assays of this panel Not Active means under 50% inhibition at 10 µM.
Another assay has as its target Melanocortin receptor 4 (Homo sapiens, UniProt P32245). The assay is classed as cell membranes, Membrane. Particulars: hek293. Further: in other assays of this panel Not Active means under 50% inhibition at 10 µM.
In the next assay the target is Acetylcholinesterase (Homo sapiens, UniProt P22303). The assay is described as follows: DRUGMATRIX: Acetylcholinesterase enzyme inhibition (substrate: acetylthiocholine). Format: cell-based, HEK293. Particulars: hek293; Not Active = under 50% inhibition at 10 µM.
A further assay addresses T1, Adenosine receptor A3 (Homo sapiens, UniProt P0DMS8).
T1 sequence (P0DMS8 whole entry): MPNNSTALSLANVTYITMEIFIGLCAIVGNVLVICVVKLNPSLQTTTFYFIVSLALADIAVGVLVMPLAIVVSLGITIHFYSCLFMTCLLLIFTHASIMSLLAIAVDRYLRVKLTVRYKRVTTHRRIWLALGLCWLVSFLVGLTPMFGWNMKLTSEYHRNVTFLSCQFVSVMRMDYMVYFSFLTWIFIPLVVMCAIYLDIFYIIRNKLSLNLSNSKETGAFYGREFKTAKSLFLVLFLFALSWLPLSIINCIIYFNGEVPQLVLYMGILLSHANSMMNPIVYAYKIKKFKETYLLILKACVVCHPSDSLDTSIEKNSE
Format: cell membranes, CHO-K1, Membrane. The conditions noted are these: for Ki: read-out: Ki.

Chain of Acetylcholinesterase (P22303 whole entry): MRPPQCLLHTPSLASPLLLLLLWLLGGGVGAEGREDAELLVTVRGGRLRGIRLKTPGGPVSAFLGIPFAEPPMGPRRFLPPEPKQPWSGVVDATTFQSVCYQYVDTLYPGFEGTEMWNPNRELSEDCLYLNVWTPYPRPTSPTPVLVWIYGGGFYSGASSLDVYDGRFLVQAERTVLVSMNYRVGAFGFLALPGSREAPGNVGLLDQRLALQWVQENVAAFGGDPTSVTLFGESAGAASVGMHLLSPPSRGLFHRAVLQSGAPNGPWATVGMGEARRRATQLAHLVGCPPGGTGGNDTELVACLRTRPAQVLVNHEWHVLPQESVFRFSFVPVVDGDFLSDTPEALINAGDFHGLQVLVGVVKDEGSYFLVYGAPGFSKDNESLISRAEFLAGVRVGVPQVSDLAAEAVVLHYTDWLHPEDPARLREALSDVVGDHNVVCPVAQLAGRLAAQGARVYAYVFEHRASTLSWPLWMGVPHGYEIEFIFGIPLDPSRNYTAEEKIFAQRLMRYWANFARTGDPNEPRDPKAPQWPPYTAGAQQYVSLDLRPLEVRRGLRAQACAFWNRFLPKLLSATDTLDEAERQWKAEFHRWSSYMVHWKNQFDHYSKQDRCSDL
Chain of 5-hydroxytryptamine receptor 2B (P41595 whole entry): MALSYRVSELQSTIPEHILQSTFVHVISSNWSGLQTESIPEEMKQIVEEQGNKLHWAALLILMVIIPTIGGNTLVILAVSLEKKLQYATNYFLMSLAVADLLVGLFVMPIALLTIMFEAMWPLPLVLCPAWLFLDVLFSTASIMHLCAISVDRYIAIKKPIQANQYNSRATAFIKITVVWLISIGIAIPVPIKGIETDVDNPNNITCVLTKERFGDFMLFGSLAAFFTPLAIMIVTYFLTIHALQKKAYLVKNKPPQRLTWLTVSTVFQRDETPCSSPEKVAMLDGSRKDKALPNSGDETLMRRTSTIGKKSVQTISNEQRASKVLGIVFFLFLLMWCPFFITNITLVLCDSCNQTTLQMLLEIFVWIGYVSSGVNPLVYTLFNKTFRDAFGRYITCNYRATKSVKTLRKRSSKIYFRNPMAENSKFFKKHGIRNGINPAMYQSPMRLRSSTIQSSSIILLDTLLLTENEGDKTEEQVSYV
Chain of Melanocortin receptor 4 (P32245 whole entry): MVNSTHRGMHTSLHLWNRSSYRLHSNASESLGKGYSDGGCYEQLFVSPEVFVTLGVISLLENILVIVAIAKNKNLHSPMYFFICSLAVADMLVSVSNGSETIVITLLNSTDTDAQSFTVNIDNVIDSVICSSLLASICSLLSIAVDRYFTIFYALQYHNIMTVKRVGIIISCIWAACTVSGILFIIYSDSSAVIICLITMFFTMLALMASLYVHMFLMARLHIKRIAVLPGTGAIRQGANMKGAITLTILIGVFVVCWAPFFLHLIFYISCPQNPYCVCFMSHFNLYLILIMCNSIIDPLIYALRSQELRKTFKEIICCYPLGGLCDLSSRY
Chain of Sodium-dependent noradrenaline transporter (P23975 whole entry): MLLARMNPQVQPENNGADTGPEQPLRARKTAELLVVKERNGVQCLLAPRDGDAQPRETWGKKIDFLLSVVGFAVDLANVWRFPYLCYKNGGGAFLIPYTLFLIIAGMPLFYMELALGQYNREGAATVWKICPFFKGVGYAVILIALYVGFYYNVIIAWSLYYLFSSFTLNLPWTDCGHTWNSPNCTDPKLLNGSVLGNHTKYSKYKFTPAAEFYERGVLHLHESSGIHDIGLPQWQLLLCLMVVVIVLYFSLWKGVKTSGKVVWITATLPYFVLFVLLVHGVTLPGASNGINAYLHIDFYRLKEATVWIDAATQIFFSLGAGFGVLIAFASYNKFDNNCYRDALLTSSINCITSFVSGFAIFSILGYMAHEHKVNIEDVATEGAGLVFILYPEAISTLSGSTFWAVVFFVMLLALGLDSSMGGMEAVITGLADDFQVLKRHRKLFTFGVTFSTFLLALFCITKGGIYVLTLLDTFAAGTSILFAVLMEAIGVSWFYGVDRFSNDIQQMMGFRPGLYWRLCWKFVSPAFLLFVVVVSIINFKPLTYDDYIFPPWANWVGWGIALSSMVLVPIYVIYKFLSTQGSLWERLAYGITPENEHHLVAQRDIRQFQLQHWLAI

Regarding `NC(=O)CN1CCCC1=O`, the IC50 entry (in assay [1]; in assay [2] (mdck); in assay [3] (cho-k1); at Melanocortin receptor 4; against Acetylcholinesterase; on Adenosine receptor A3 (cho-k1)) was “Not Active” each time. Also, the Ki entry in assay [1] is “Not Active”.
For the compound `CNC[C@H](O)c1ccc(O)c(O)c1` [EPINEPHRINE], the IC50 result (in assay [1]; in assay [2] (mdck); in assay [3] (cho-k1); on Melanocortin receptor 4; at Acetylcholinesterase; against Adenosine receptor A3 (cho-k1)) was “Not Active” each time. For the same compound, the Ki entry in assay [1] is on record as “Not Active”.
As to `c1ccc2c(c1)Nc1ccccc1S2` [PHENOTHIAZINE], the IC50 result in assay [1] is “Not Active”; in assay [2] (read-out: IC50), 461 nM; in assay [3] (cho-k1), “Not Active”; at Melanocortin receptor 4, “Not Active”; at Acetylcholinesterase it was “Not Active”; on Adenosine receptor A3 (read-out: IC50), 25600 nM. In addition, the Ki entry in assay [1] was “Not Active”; in assay [2], 457 nM; at Adenosine receptor A3, 14500 nM.
For `ClC1=C(Cl)[C@]2(Cl)[C@@H]3[C@@H]4C[C@@H]([C@H]5O[C@@H]45)[C@@H]3[C@@]1(Cl)C2(Cl)Cl` [DIELDRIN], the 50% inhibitory concentration (IC50) result (in assay [1]; in assay [2] (mdck); in assay [3] (cho-k1); on Melanocortin receptor 4; on Acetylcholinesterase; against Adenosine receptor A3 (cho-k1)) was “Not Active” each time. Moreover, in assay [1], the inhibitory constant (Ki) result is “Not Active”.
Turning to `CC(C)(c1ccc(O)cc1)c1ccc(O)cc1` [BISPHENOL A], the IC50 entry is “Not Active” in assay [1]; 16600 nM in assay [2] (read-out: IC50); “Not Active” in assay [3] (cho-k1); “Not Active” at Melanocortin receptor 4; “Not Active” on Acetylcholinesterase; “Not Active” on Adenosine receptor A3 (cho-k1). Moreover, the results for the Ki result in assay [1] and in assay [2] were “Not Active” and 16500 nM, respectively.
In the case of `CN(Cc1cc(Br)cc(Br)c1N)C1CCCCC1` [BROMHEXINE], the IC50 result (in assay [1]; in assay [2] (mdck); in assay [3] (cho-k1); at Melanocortin receptor 4; on Acetylcholinesterase; against Adenosine receptor A3 (cho-k1)) was “Not Active” each time. Besides, in assay [1], the Ki result was “Not Active”.
Consider `c1ccc(Cn2ccnc2)cc1`, for which the IC50 entry (in assay [1]; in assay [2] (mdck); in assay [3] (cho-k1); at Melanocortin receptor 4; on Acetylcholinesterase; at Adenosine receptor A3 (cho-k1)) was “Not Active” in each case. The Ki result in assay [1] is given as “Not Active”.
In the case of `CCO` [ALCOHOL], the IC50 result (in assay [1]; in assay [2] (mdck); in assay [3] (cho-k1); against Melanocortin receptor 4; on Acetylcholinesterase; against Adenosine receptor A3 (cho-k1)) was “Not Active” throughout. In assay [1], the Ki result is given as “Not Active”.
On to `CCN1CCN(C(=O)N[C@@H](C(=O)N[C@@H]2C(=O)N3[C@@H]2SC(C)(C)[C@@H]3C(=O)O)c2ccccc2)C(=O)C1=O` [PIPERACILLIN], for which the IC50 result (in assay [1]; in assay [2] (mdck); in assay [3] (cho-k1); against Melanocortin receptor 4; against Acetylcholinesterase; against Adenosine receptor A3 (cho-k1)) was “Not Active” throughout. Also, the Ki result in assay [1] is given as “Not Active”.
Turning to `NC(=O)NC(=O)Cc1ccccc1` [PHENACEMIDE], the IC50 result (in assay [1]; in assay [2] (mdck); in assay [3] (cho-k1); against Melanocortin receptor 4; against Acetylcholinesterase; against Adenosine receptor A3 (cho-k1)) was “Not Active” in each case. In addition, the Ki entry in assay [1] is on record as “Not Active”.
Regarding `CC(CN1c2ccccc2Sc2ccccc21)N(C)C` (stereo unspecified) [PROMETHAZINE], the IC50 result in assay [1] was “Not Active”; in assay [2] (read-out: IC50) it was 4240 nM; in assay [3] (read-out: IC50), 68 nM; at Melanocortin receptor 4 it was “Not Active”; against Acetylcholinesterase, “Not Active”; against Adenosine receptor A3 (cho-k1) it was “Not Active”. In addition, the Ki entry in assay [1] is “Not Active”; in assay [2] it was 4200 nM; in assay [3], 43 nM.
`Nc1ccc(Cc2ccc(N)cc2)cc1`: the IC50 result (in assay [1]; in assay [2] (mdck); in assay [3] (cho-k1); against Melanocortin receptor 4; at Acetylcholinesterase; against Adenosine receptor A3 (cho-k1)) was “Not Active” throughout. Further, the Ki result in assay [1] is “Not Active”.
In the case of `CC[C@H]1OC(=O)[C@H](C)[C@@H](O[C@H]2C[C@@](C)(OC)[C@@H](O)[C@H](C)O2)[C@H](C)[C@@H](O[C@@H]2O[C@H](C)C[C@H](N(C)C)[C@H]2O)[C@](C)(O)C[C@@H](C)C(=O)[C@H](C)[C@@H](O)[C@]1(C)O` [ERYTHROMYCIN], the IC50 entry (in assay [1]; in assay [2] (mdck); in assay [3] (cho-k1); against Melanocortin receptor 4; against Acetylcholinesterase; on Adenosine receptor A3 (cho-k1)) was “Not Active” in each case. Besides, the Ki entry in assay [1] was “Not Active”.
As to `C[N+](C)(C)CCOP(=O)([O-])OC[C@H](O)CO`, the IC50 entry (in assay [1]; in assay [2] (mdck); in assay [3] (cho-k1); against Melanocortin receptor 4; against Acetylcholinesterase; on Adenosine receptor A3 (cho-k1)) was “Not Active” throughout. In assay [1], the Ki entry was “Not Active”.
Regarding `Clc1cc(Cl)c(OCC#CI)cc1Cl` [HALOPROGIN], the IC50 entry in assay [1] was “Not Active”; in assay [2] (read-out: IC50), 2770 nM; in assay [3] (cho-k1) it was “Not Active”; on Melanocortin receptor 4 it was “Not Active”; against Acetylcholinesterase, “Not Active”; on Adenosine receptor A3 (read-out: IC50), 223 nM. The inhibitory constant (Ki) result in assay [1] is “Not Active”; in assay [2], 2750 nM; at Adenosine receptor A3, 126 nM.
On to `Cc1cc(C(C)(C)C)c(O)c(C)c1CC1=NCCN1` [OXYMETAZOLINE], for which the IC50 entry was “Not Active” in assay [1]; “Not Active” in assay [2] (mdck); 3060 nM in assay [3] (read-out: IC50); “Not Active” against Melanocortin receptor 4; “Not Active” against Acetylcholinesterase; “Not Active” at Adenosine receptor A3 (cho-k1). The inhibition constant (Ki) result in assay [1] was “Not Active”; in assay [3], 1940 nM.
`C[N+](C)(C)CCOC(N)=O.[Cl-]` [CARBACHOL]: the IC50 entry (in assay [1]; in assay [2] (mdck); in assay [3] (cho-k1); at Melanocortin receptor 4; against Acetylcholinesterase; at Adenosine receptor A3 (cho-k1)) was “Not Active” in each case. Further, the Ki entry in assay [1] is listed as “Not Active”.
For the compound `CCN(CCO)CCCC(C)Nc1ccnc2cc(Cl)ccc12` (stereo unspecified) [HYDROXYCHLOROQUINE], the IC50 entry (in assay [1]; in assay [2] (mdck); in assay [3] (cho-k1); against Melanocortin receptor 4; against Acetylcholinesterase; at Adenosine receptor A3 (cho-k1)) was “Not Active” each time. Besides, the inhibition constant Ki entry in assay [1] was “Not Active”.
For the compound `O=C1c2ccccc2C(=O)C1c1ccccc1` [PHENINDIONE], the IC50 entry (in assay [1]; in assay [2] (mdck); in assay [3] (cho-k1); on Melanocortin receptor 4; against Acetylcholinesterase; at Adenosine receptor A3 (cho-k1)) was “Not Active” in each case. The Ki result in assay [1] is given as “Not Active”.
On to `NC(N)=Nc1nc(CSCCC(N)=NS(N)(=O)=O)cs1` [FAMOTIDINE], for which the IC50 entry (in assay [1]; in assay [2] (mdck); in assay [3] (cho-k1); on Melanocortin receptor 4; against Acetylcholinesterase; against Adenosine receptor A3 (cho-k1)) was “Not Active” each time. In assay [1], the Ki entry is on record as “Not Active”.
In the case of `Cc1ccnc2c1NC(=O)c1cccnc1N2C1CC1` [NEVIRAPINE], the IC50 entry (in assay [1]; in assay [2] (mdck); in assay [3] (cho-k1); on Melanocortin receptor 4; against Acetylcholinesterase; at Adenosine receptor A3 (cho-k1)) was “Not Active” each time. In addition, the Ki result in assay [1] was “Not Active”.
Consider `CO[C@H]1O[C@@H]2O[C@@]3(C)CC[C@H]4[C@H](C)CC[C@@H]([C@H]1C)[C@@]24OO3`, for which the IC50 result (in assay [1]; in assay [2] (mdck); in assay [3] (cho-k1); at Melanocortin receptor 4; at Acetylcholinesterase; against Adenosine receptor A3 (cho-k1)) was “Not Active” in each case. Besides, the inhibition constant (Ki) result in assay [1] is given as “Not Active”.
On to `CN(CCOc1ccc(C[C@H](Nc2ccccc2C(=O)c2ccccc2)C(=O)O)cc1)c1ccccn1`, for which the IC50 entry was “Not Active” in assay [1]; 40300 nM in assay [2] (read-out: IC50); “Not Active” in assay [3] (cho-k1); “Not Active” against Melanocortin receptor 4; “Not Active” at Acetylcholinesterase; 14300 nM at Adenosine receptor A3 (read-out: IC50). Moreover, the inhibitory constant (Ki) entry in assay [1] is “Not Active”; in assay [2], 40000 nM; at Adenosine receptor A3, 8090 nM.
Turning to `c1ccc2sc(SSc3nc4ccccc4s3)nc2c1` [BENZOTHIAZYL DISULFIDE], the IC50 result is “Not Active” in assay [1]; “Not Active” in assay [2] (mdck); “Not Active” in assay [3] (cho-k1); “Not Active” at Melanocortin receptor 4; “Not Active” at Acetylcholinesterase; 347 nM at Adenosine receptor A3 (read-out: IC50). Besides, the results for the Ki entry (in assay [1]; at Adenosine receptor A3) were “Not Active” and 196 nM, respectively.
In the case of `NS(=O)(=O)c1cc(C(=O)O)c(NCc2ccco2)cc1Cl` [FUROSEMIDE], the IC50 result (in assay [1]; in assay [2] (mdck); in assay [3] (cho-k1); at Melanocortin receptor 4; at Acetylcholinesterase; against Adenosine receptor A3 (cho-k1)) was “Not Active” throughout. Besides, the Ki result in assay [1] was “Not Active”.
